From patent US20240382474A1, “ENPP1 MODULATORS AND USES THEREOF” (Vir Biotechnology, Inc., priority 2021, published 2024)
Entries after “also recorded” stand apart in the source; their conditions may differ.

How the values were obtained:
[1] = target: T1, human ENPP1 enzymatic domain (Homo sapiens, UniProt P22413); assay: ENPP1 Enzymatic Inhibition Assay (2′3′-cGAMP substrate, AMP-Glo luminescence); assay type: biochemical; conditions: 1 nM ENPP1, 20 uM 2′3′-cGAMP, 30 minutes at 37° C.
T1 construct: recombinant protein containing the human ENPP1 enzymatic domain; purchased Viva Biotech
T1 sequence (P22413 191-591 limits assumed): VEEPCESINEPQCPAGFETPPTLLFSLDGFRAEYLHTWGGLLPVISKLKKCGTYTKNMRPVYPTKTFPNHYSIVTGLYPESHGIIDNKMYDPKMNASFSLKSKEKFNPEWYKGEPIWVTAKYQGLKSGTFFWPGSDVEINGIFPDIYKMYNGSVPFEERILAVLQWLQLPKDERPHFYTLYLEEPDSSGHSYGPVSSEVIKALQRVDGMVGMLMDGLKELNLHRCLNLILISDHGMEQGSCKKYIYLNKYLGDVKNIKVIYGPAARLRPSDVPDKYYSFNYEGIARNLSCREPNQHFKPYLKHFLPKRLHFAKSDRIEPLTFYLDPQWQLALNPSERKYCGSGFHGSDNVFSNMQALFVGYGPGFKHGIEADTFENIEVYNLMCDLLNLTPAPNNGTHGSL
Experimental: The inhibition of ENPP1's phosphodiesterase activity were tested in a purified enzymatic assay using 2′3′-cyclic GAMP as a substrate which allowed for the release of cleaved AMP to be monitored using a luminescent assay.
Putative inhibitors were diluted in assay buffer (50 mM Tris pH 8.0, 250 mM NaCl, 0.5 mM CaCl2), 1 uM ZnCl2, 1% DMSO) and pre-incubated for 15 minutes at 37° C. with recombinant protein containing the human ENPP1 enzymatic domain (Viva Biotech). The enzymatic reaction was initiated upon addition of the 2′3′-cGAMP substrate. The final reaction concentrations were 1 nM ENPP1 and 20 uM 2′3′-cGAMP substrate in a 25 uL volume. Inhibitor concentrations ranged from 10 uM to 0.056 nM. The reaction was incubated for 30 minutes at 37° C.
After reacting for 30 minutes, the amount of AMP generated from the cleavage of 2′3′-cGAMP was determined using the Promega AMP-Glo method according to the manufacturer's protocol. First, AMP-Glo reagent 1 was added and incubated with the reaction mix for 1 hour at room temperature. Second, AMP Detection solution was added and the mixture was incubated for an additional hour. The luminescence of the mixture was read on a Perkin Elmer Ensight plate reader.
The maximum and minimum levels of ENPP1 activity were established using no inhibitor and no enzyme controls, respectively. The activity observed using ENPP1 inhibitors was quantified as the percent of activity relative to these controls. IC50 values were calculated using CDD Vault by fitting a sigmoidal variable slope nonlinear regression model to the data.

MC38 tumor xenografts [2] = assay: Treatment of mice bearing MC38 tumor xenografts (Study 1); assay type: in vivo, C57BL/6 mice
Experimental: Ten week old female C57BL/6 mice were implanted subcutaneously in the flank with 5×10^5 MC38 cells. Tumors were measured every 2-3 days using a caliper. Body weight was measured every 2-3 days. Dosing initiated on Day (when the average tumor volume reached 50 mm^3. Five animals were assigned to each treatment group. Animals were dosed orally by gavage with Compound 26 for 10 days and were monitored through Day 32 or until tumors reached 2.000 mm^3 in volume.
FIG. 1 provides a graph of mean tumor volumes for this set of mice bearing MC38 tumor xenografts. Mice were divided into three groups: (1) control group, who received no treatment (black circles, solid line); (2) mice who received Compound 26 dosed at 4 mg/kg PO QD (grey triangles, dashed lines); and (3) mice who received Compound 26 dosed at 60 mg/kg PO QD (grey squares, dotted line). In each treatment group, compound 26 was administered once a day for 10 consecutive days, at which time, treatment was ceased.

MC38 tumor xenografts [3] = assay: Treatment of mice bearing MC38 tumor xenografts (Study 2): tumor volume, survival, body weight; assay type: in vivo, C57BL/6 mice
Experimental: (§1) In this study, 6-8 week old female C57BL/6 mice were implanted subcutaneously in the flank with 5×10^5 MC38 cells. Tumors were measured every 2-3 days using a caliper. Body weight was measured every 2-3 days. Dosing initiated on Day (when the average tumor volume reached 50 mm^3 with 15 animals assigned to each treatment group. Animals were dosed orally by gavage with Compound 26 (4 mg/kg PO QD) or Compound 56 (either 1 mg/kg PO QD or 12 mg/kg PO QD).
(§2) A subset of 5 animals from each group were collected on day 10 after the initiation of dosing. Tumors were harvested and lysed via sonication. Supernatants were collected, adjusted for total protein, and assayed using a Luminex cytokine and chemokine panel (Invitrogen) and an IFN-β ELISA. The remaining 10 animals in each group were dosed and monitored through Day 27 or until tumors reached 2 cm in size.
FIG. 2A provides a graph of mean tumor volumes for this set of mice bearing MC38 tumor xenografts. Mice were divided into four groups: (1) control group, who received no treatment (black circles, solid line); (2) mice who received Compound 26 dosed at 4 mg/kg PO QD (grey squares, dashed line); (3) mice who received Compound 56 dosed at 12 mg/kg PO QD (grey triangles, dotted line); and (4) mice who received Compound 56 dosed at 1 mg/kg PO QD (empty circles, dotted dashed line).

MC38 tumor xenografts [4] = assay: Treatment of mice bearing MC38 tumor xenografts (Study 3); assay type: in vivo, C57BL/6 mice; conditions: for survival: day to which some mice survived (Kaplan-Meier, FIG. 5B): all untreated mice deceased by day 21
Experimental: In this study, 6-8 week old female C57BL/6 mice were implanted subcutaneously in the flank with 5×10^5 MC38 cells. Tumors were measured every 2-3 days using a caliper. Body weight was measured every 2-3 days. Dosing initiated when the average tumor volume reached 50 mm^3 with 7 animals assigned to each treatment group. Animals were dosed orally once daily through Day 27 or until tumors reached 2 cm in size.
FIGS. 5A-5B provide data for a fourth set of mice bearing MC38 tumor xenografts. FIG. 5A provides a graph of median tumor volumes for this set of mice. Mice were divided into three groups: (1) control group, who received no treatment (circles); (2) mice who received Compound 26 dosed at 4 mg/kg PO QD (squares); and (3) mice who received Compound 56 dosed at 12 mg/kg PO QD (triangles). […] For example, at day 20, tumor volumes for the untreated mice were between 2000 and 3000 mm^3, while for treated mice had tumor volumes between 1000 and 2000 mm^3.

MC38 tumors = assay: Intratumoral cytokine levels at day 10 in MC38 tumors (Study 2; Luminex cytokine and chemokine panel, IFN-β ELISA); assay type: in vivo, C57BL/6 mice; conditions: 12 mg/kg QD
Experimental: as §1, §2
Intratumoral concentrations for each of these inflammatory cytokines are provided in picogram of cytokine per gram of tumor tissue. FIGS. 4B-F each provide data for each of the following: (1) untreated control group (circles); (2) mice treated with 4 mg/kg QD Compound 26 (triangles); (3) mice treated with 12 mg/kg QD […]; and (4) mice treated with […].

SMILES | IC50 [1] [nM] | mean tumor volume compared to the control group (FIG. 1) (MC38 tumor xenografts [2]; 4 mg/kg PO QD for 10 days) | mean tumor volume compared to the control group (FIG. 1) (MC38 tumor xenografts [2]; 60 mg/kg PO QD for 10 days) | mean tumor volume compared to the untreated group (FIG. 2A) (MC38 tumor xenografts [3]; 4 mg/kg PO QD) | survival: day to which some mice survived (Kaplan-Meier, FIG. 3A) (MC38 tumor xenografts [3]; 4 mg/kg PO QD, all untreated mice deceased by day 22) [days] | median tumor volumes compared to the untreated group (FIG. 5A) (MC38 tumor xenografts [4]; 4 mg/kg PO QD) | survival: day to which some mice survived (Kaplan-Meier, FIG. 5B) (MC38 tumor xenografts [4]; 4 mg/kg PO QD) [days] | mean tumor volume compared to the untreated group (FIG. 2A) (MC38 tumor xenografts [3]; 1 mg/kg PO QD) | survival: day to which at least one mouse survived (Kaplan-Meier, FIG. 3A) (MC38 tumor xenografts [3]; 1 mg/kg PO QD, all untreated mice deceased by day 22) [days] | mean tumor volume compared to the untreated group (FIG. 2A) (MC38 tumor xenografts [3]; 12 mg/kg PO QD) | survival: day to which at least one mouse survived (Kaplan-Meier, FIG. 3A) (MC38 tumor xenografts [3]; 12 mg/kg PO QD, all untreated mice deceased by day 22) [days] | median intratumoral concentration of eotaxin (FIG. 4F) (MC38 tumors) | median intratumoral concentration of interferon beta (IFN beta) (FIG. 4B) (MC38 tumors) | median intratumoral concentration of interferon γ-induced protein 10 kDa (IP-10) (FIG. 4C) (MC38 tumors) | median intratumoral concentration of macrophage inflammatory protein-1-beta (MIP-1beta) (FIG. 4D) (MC38 tumors) | median intratumoral concentration of monocyte-chemotactic protein 3 (MCP-3) (FIG. 4E) (MC38 tumors) | median tumor volumes compared to the untreated group (FIG. 5A) (MC38 tumor xenografts [4]; 12 mg/kg PO QD) | survival: day to which some mice survived (Kaplan-Meier, FIG. 5B) (MC38 tumor xenografts [4]; 12 mg/kg PO QD) [days]
COc1ccc2c(Oc3ccc([S@@](=N)(=O)NC[C@@H](C)O)cc3)ccnc2c1 [Compound 26, (S)-N-((R)-2-hydroxypropyl)-4-((7-methoxyquinolin-4-yl)oxy)benzenesulfonimidamide] | < 10 | lower | lower | smaller | 24 | significantly lower | 24 |  |  |  |  |  |  |  |  |  |  | 
COc1ccc2c(Nc3ccc([S@@](=N)(=O)NC[C@@H](C)O)cc3)ccnc2c1 [Compound 56, (S)-N-((R)-2-hydroxypropyl)-4-((7-methoxyquinolin-4-yl)amino)benzenesulfonimidamide] | < 10 |  |  |  |  |  |  | smaller | > 27 | smaller; also recorded: greatest reduction in tumor volume | > 27 | ~15000 pg eotaxin/g of tumor | > 400 pg IFNbeta/g of tumor | 3000-4000 pg IP-10/g of tumor | ~9000 pg MIP-1 beta/g of tumor | 20000-30000 pg MCP-3/g of tumor | significantly lower | ≥ 27
